Reference: BindingDB's records for doi:10.7270/Q2Q52N1X (Vanderbilt Screening Center for GPCRs, Ion Channels and …, 2009)

What follows are compounds tested against T1, Solute carrier family 12 member 5 (Homo sapiens, UniProt Q9H2X9) (assay: KCC2 modulator potency by thallium flux, dose response, cell-based, HEK293 KCC2, FluoZin-2 fluorescence (AID 1736)). Conditions: not given.
T1 sequence (Q9H2X9 whole entry): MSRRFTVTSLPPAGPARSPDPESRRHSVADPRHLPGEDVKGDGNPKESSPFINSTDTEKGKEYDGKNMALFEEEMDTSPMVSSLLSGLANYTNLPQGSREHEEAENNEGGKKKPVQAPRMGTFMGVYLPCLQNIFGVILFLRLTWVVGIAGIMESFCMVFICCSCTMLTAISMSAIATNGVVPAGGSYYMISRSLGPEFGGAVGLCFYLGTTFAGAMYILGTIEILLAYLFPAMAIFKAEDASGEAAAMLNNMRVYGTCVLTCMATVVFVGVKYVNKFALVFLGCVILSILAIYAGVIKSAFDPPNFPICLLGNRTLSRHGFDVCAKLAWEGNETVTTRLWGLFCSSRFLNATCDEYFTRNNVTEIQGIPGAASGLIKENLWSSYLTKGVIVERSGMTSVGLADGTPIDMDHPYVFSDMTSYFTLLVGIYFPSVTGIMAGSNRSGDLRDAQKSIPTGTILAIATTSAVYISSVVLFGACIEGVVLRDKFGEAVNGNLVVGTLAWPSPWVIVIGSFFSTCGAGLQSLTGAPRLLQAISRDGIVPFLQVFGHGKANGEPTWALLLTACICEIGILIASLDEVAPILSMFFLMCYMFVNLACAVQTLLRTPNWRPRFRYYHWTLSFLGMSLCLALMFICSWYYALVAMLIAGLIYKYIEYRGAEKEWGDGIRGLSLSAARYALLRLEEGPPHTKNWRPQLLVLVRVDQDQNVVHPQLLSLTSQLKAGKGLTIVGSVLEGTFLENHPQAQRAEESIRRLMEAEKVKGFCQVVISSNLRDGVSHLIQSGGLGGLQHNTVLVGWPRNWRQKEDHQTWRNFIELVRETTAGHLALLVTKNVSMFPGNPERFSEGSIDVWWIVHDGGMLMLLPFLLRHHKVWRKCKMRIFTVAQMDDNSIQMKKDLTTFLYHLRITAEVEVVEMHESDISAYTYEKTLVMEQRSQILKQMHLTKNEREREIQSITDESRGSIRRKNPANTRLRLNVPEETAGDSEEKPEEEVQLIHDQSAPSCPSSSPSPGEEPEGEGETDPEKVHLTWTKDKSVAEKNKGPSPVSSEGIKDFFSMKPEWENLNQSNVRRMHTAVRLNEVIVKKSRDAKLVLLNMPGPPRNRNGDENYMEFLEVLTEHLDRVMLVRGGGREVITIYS

Row | SMILES | EC50 [µM]
1 | Cc1ccc(-c2n[nH]c(=S)n2NC=CCc2ccccc2[N+](=O)[O-])cc1 | 1.8
2 | Cc1[nH]c2ccccc2c1Cc1n[nH]c(=S)n1C | 25.1
3 | COc1cc(C=NN(C)c2ccccc2)ccc1O | 10100
4 | Cc1[nH]c2ccccc2c1Cc1nnc(S)o1 | 1.59
5 | O=c1[nH]c2c(s1)C(c1ccccc1)c1c(c(O)n(-c3ccccc3)c1O)S2 (stereo unspecified) | 0.102
6 | O=C(CSc1ccccc1C(=O)NCc1ccccc1)NC12CC3CC(CC(C3)C1)C2 | 5.21
7 | CC(C)N1C(=O)S/C(=C/c2ccccc2OCc2ccc(C(=O)O)cc2)C1=O | 218
8 | CC1CCCCN1C(=O)CSc1nnc(-c2c[nH]c3ccccc23)o1 (stereo unspecified) | 10.7
9 | NC1=NC[C@@H](Cc2ccc(O)cc2)N1CCc1cc(C(F)(F)F)cc(C(F)(F)F)c1 | 7.94
10 | O=C1OC(c2ccc(O)cc2)(c2ccc(O)cc2)c2ccccc21 | 3.29
11 | O=C(O)c1cc(-c2ccc(F)cc2F)ccc1O | 10.6
12 | O=C(c1cc2c(s1)-c1ccccc1OC2)N1CCC2(CC1)OCCO2 [1,4-dioxa-8-azaspiro[4.5]decan-8-yl(4H-thieno[3,2-c][1]benzopyran-2-yl)methanone] | 30.2
13 | O=C(CSc1nnc(C2CC2)n1Cc1ccccc1)c1cc2ccccc2o1 [1-(1-benzofuran-2-yl)-2-[(4-benzyl-5-cyclopropyl-1,2,4-triazol-3-yl)sulfanyl]ethanone] | 5.3
14 | CC1Cc2ccccc2N1C(=O)CSc1nnc(CNc2ccccc2)o1 (stereo unspecified) [1-(2-Methyl-2,3-dihydro-indol-1-yl)-2-(5-phenylaminomethyl-[1,3,4]oxadiazol-2-ylsulfanyl)-ethanone] | 18.5
15 | CC1Cc2ccccc2N1C(=O)CSc1nnnn1Cc1ccccc1 (stereo unspecified) [1-(2-methyl-2,3-dihydroindol-1-yl)-2-[[1-(phenylmethyl)-1,2,3,4-tetrazol-5-yl]sulfanyl]ethanone] | 1.91
16 | C=CCn1c(Cc2cccs2)nnc1SCC(=O)c1ccc2ccccc2c1 [1-(2-naphthalenyl)-2-[[4-prop-2-enyl-5-(thiophen-2-ylmethyl)-1,2,4-triazol-3-yl]thio]ethanone] | 4.99
17 | O=C(CSc1nnc(-c2ccc(O)cc2)n1Cc1ccco1)N1CCc2ccccc2C1 [1-(3,4-Dihydro-1H-isoquinolin-2-yl)-2-[4-furan-2-ylmethyl-5-(4-hydroxy-phenyl)-4H-[1,2,4]triazol-3-ylsulfanyl]-ethanone] | 15.3
18 | O=C(CSc1nnc(CNc2ccccc2)o1)N1CCCc2ccccc21 [1-(3,4-Dihydro-2H-quinolin-1-yl)-2-(5-phenylaminomethyl-[1,3,4]oxadiazol-2-ylsulfanyl)-ethanone] | 34.6
19 | Cc1oc(-c2ccccc2)nc1C[S+]([O-])CC(=O)N1CCc2ccccc2C1 (stereo unspecified) [1-(3,4-dihydro-1H-isoquinolin-2-yl)-2-[(5-methyl-2-phenyl-1,3-oxazol-4-yl)methylsulfinyl]ethanone] | 4.86
20 | Cc1cccc(-c2nc(C[S+]([O-])CC(=O)N3CCc4ccccc4C3)c(C)o2)c1 (stereo unspecified) [1-(3,4-dihydro-1H-isoquinolin-2-yl)-2-[[5-methyl-2-(3-methylphenyl)-1,3-oxazol-4-yl]methylsulfinyl]ethanone] | 5.03

Row | SMILES | EC50 [µM]
21 | Cn1cc(C(=O)C(=O)N2CCCc3ccccc32)c2ccccc21 [1-(3,4-dihydro-2H-quinolin-1-yl)-2-(1-methyl-3-indolyl)ethane-1,2-dione] | 3.72
22 | O=C(CSc1ccc(-c2ccccc2)nn1)N1CCCc2ccccc21 [1-(3,4-dihydro-2H-quinolin-1-yl)-2-(6-phenylpyridazin-3-yl)sulfanyl-ethanone] | 10.5
23 | S=C(NN=Cc1cccc2ccccc12)Nc1cccc(Cl)c1 [1-(3-chlorophenyl)-3-(1-naphthalenylmethylideneamino)thiourea] | 12.7
24 | O=C(c1ccc(N2CCCCCC2)c([N+](=O)[O-])c1)N1CCc2ccccc21 [1-(4-azepan-1-yl-3-nitrobenzoyl)indoline] | 0.556
25 | O=C(CSc1nnc(Cc2ccccc2)o1)c1ccc(F)cc1 [1-(4-fluorophenyl)-2-[[5-(phenylmethyl)-1,3,4-oxadiazol-2-yl]sulfanyl]ethanone] | 3.85
26 | Cc1ccc(S(=O)(=O)N2CCC(=O)N(C(COCc3ccccc3)Cc3ccccc3)CC2)cc1 (stereo unspecified) [1-(4-methylphenyl)sulfonyl-4-(1-phenyl-3-phenylmethoxy-propan-2-yl)-1,4-diazepan-5-one] | 1.17
27 | S=C(NCc1cccnc1)Nc1ccc(Oc2ccccc2)cc1 [1-(4-phenoxyphenyl)-3-(3-pyridinylmethyl)thiourea] | 5.3
28 | O=C(C[n+]1ccccc1)c1ccc(-c2ccccc2)cc1 [1-(4-phenylphenyl)-2-(1-pyridin-1-iumyl)ethanone;bromide] | 43.6
29 | Cc1cccc(Nc2nnc(SCC(=O)c3ccc(Br)s3)s2)c1C [1-(5-bromanylthiophen-2-yl)-2-[[5-[(2,3-dimethylphenyl)amino]-1,3,4-thiadiazol-2-yl]sulfanyl]ethanone] | 1.49
30 | Cc1ccc(Nc2nnc(SCC(=O)c3ccc(Br)s3)s2)c(C)c1 [1-(5-bromanylthiophen-2-yl)-2-[[5-[(2,4-dimethylphenyl)amino]-1,3,4-thiadiazol-2-yl]sulfanyl]ethanone] | 1.02
31 | Cc1noc(C)c1S(=O)(=O)N1CCC(C(=O)N2CCN(c3ccc(F)cc3)CC2)CC1 [1-({1-[(3,5-dimethylisoxazol-4-yl)sulfonyl]piperidin-4-yl}carbonyl)-4-(4-fluorophenyl)piperazine] | 7.58
32 | O=S(=O)(NCc1ccccc1)c1ccc(Cl)c(S(=O)(=O)NCc2ccccc2)c1 [1-N,3-N-dibenzyl-4-chlorobenzene-1,3-disulfonamide] | 2.11
33 | Cc1nc2cc(C(F)(F)F)ccc2n1C1CCN(Cc2nnnn2Cc2ccc3c(c2)OCO3)CC1 [1-[1-(1-Benzo[1,3]dioxol-5-ylmethyl-1H-tetrazol-5-ylmethyl)-piperidin-4-yl]-2-methyl-5-trifluoromethyl-1H-benzoimidazole] | 16.4
34 | CC(C)(CN=C(S)NCCc1ccccc1)CN=C(S)NCCc1ccccc1 [1-[2,2-dimethyl-3-(2-phenylethylcarbamothioylamino)propyl]-3-(2-phenylethyl)thiourea] | 0.929
35 | CCOC(=O)c1cc2c(ccn2C)n1CC(=O)N1CCC(Cc2ccccc2)CC1 [1-[2-(4-Benzyl-piperidin-1-yl)-2-oxo-ethyl]-4-methyl-1,4-dihydro-pyrrolo[3,2-b]pyrrole-2-carboxylic acid ethyl ester] | 7.58
36 | Cc1ccc2oc(-c3ccc(C)c(NC(=S)NC(=O)c4cccs4)c3)nc2c1 [1-[2-Methyl-5-(5-methyl-benzooxazol-2-yl)-phenyl]-3-(thiophene-2-carbonyl)-thiourea] | 0.2
37 | CCC(c1nnc(SCc2nc3ccccc3s2)n1Cc1ccccc1)N(C)C (stereo unspecified) [1-[5-(1,3-benzothiazol-2-ylmethylsulfanyl)-4-(phenylmethyl)-1,2,4-triazol-3-yl]-N,N-dimethyl-propan-1-amine] | 6.62
38 | CN(Cc1ccccc1)c1nc2nonc2nc1N1CCCC(CN2CCCC2=O)C1 (stereo unspecified) [1-[(1-{6-[benzyl(methyl)amino][1,2,5]oxadiazolo[3,4-b]pyrazin-5-yl}piperidin-3-yl)methyl]pyrrolidin-2-one] | 9050
39 | S=C(NCCc1ccccc1)NN=Cc1cccc(Cl)c1Cl [1-[(2,3-dichlorobenzylidene)amino]-3-phenethyl-thiourea] | 7.78
40 | Fc1cccc(F)c1C=NNC(=S)Nc1cccnc1 [1-[(2,6-difluorobenzylidene)amino]-3-(3-pyridyl)thiourea] | 5.9

Same assay, conditions: inactive by the depositor's call

Row | SMILES | EC50 [µM]
41 | CC(C(=O)N=c1sc2ccccc2n1C)N1C(=O)C2CC=CCC2C1=O (stereo unspecified) | 120
42 | COc1ccc(C(c2nnnn2Cc2cccs2)N2CCN(c3ccccc3F)CC2)cc1 (stereo unspecified) [1-(2-Fluoro-phenyl)-4-[(4-methoxy-phenyl)-(1-thiophen-2-ylmethyl-1H-tetrazol-5-yl)-methyl]-piperazine] | 13.2
43 | COc1cc(C)c(C)cc1S(=O)(=O)N1CCN(Cc2ccccc2)CC1 [1-(2-methoxy-4,5-dimethyl-phenyl)sulfonyl-4-(phenylmethyl)piperazine] | 33.3
44 | S=C(NCCc1ccccc1)NCc1cccs1 [1-(2-phenylethyl)-3-(thiophen-2-ylmethyl)thiourea] | 5.82
45 | O=C(NC(=S)Nc1ccc2c(c1)OCO2)c1ccc(Cl)cc1 [1-Benzo[1,3]dioxol-5-yl-3-(4-chloro-benzoyl)-thiourea] | 0.0741
46 | CSc1ccc(NC(=O)NCCN2CCc3ccccc3C2)cc1 [1-[2-(3,4-dihydro-1H-isoquinolin-2-yl)ethyl]-3-(4-methylsulfanylphenyl)urea] | 21.5
